Test results from paper PMC2409936, “Phase I and pharmacokinetic study of XR11576, an oral topoisomerase I and II inhibitor, administered on days 1–5 of a 3-weekly cycle in patients with advanced solid tumours” (British Journal of Cancer, 2004).
Where two headings read alike, the source gives them in different places.

Columns and labels:
[1] = rats; cited from earlier work
[2] = system: human colon and small-cell lung cancer xenografts; design: method as in Mistry et al, 2002; Lewis et al, 2003; conditions: ref Mistry et al, 2002, Lewis et al, 2003; cited from earlier work
[3] = Urinary excretion in patients; type: in vivo, human; conditions: within 24 h after drug administration
Experimental: (§1) All samples were centrifuged immediately after sampling at 3000 r.p.m. for 10 min at 4°C and the plasma was stored at −20°C or lower in polypropylene tubes in the dark until analysis. A total of four urine samples were also collected over a 24-h period; 0–4, 4–8, 8–12 and 12–24 h post-dosing on day 1 of the first cycle only. Of the total amount collected, a measured quantity of 10 ml was drawn off and stored at −80°C until analysis. Concentrations of XR11576 in plasma were determined according to a validated liquid chromatography-mass spectrometry detection method with liquid–liquid extraction at the Drug Metabolism and Pharmacokinetics Department of Quintiles Limited (Internal Report at Quintiles). The lower limit of quantitation was 5 ng ml^−1.
The apparent terminal half-life (T1/2(z)) of XR11576 was calculated as ln 2/k, where k is the terminal elimination rate constant (expressed in h^−1). The peak plasma concentrations (Cmax) and the time to peak plasma concentration (Tmax) were determined from the experimental values. […] The total body clearance (CL) was calculated as the ratio between the administered dose and the AUC0–∞. The extent of accumulation (R0) in plasma was calculated from AUC0–24 h (days 4 or 5)/AUC0–24 h (day 1). The fraction of the administered dose (Fe) excreted in urine and the cumulative amount of XR11576 excreted in urine (Ae) was determined. […]

[4] = Plasma pharmacokinetics in patients (LC-MS, noncompartmental analysis); type: in vivo, human; conditions: for AUC(0-inf) / AUC(0-t) / Cmax / Tmax / half-life: plasma, oral
Experimental: For PK analysis, 58 blood samples (∼5 ml each) were obtained from an indwelling intravenous cannula and collected in vials containing lithium heparin as anticoagulant. The samples were taken immediately before dosing, 30 min and 1, 1.5, 2, 3, 4, 6, 8 and 10 h after administration of the drug on days 1 and 4 (or 5) of the first and second courses. Additional samples were taken immediately prior to dosing on days 2, 3, 4 and 5, and 24, 48, 72, 144 and 312 h after the dose administration on day 5, both in the first and second cycles. From the third cycle onwards, PK samples were taken prior to dosing on day 5 to measure the potential accumulation of XR11576.
as §1
The apparent terminal half-life (T1/2(z)) of XR11576 was calculated as ln 2/k, where k is the terminal elimination rate constant (expressed in h^−1). The peak plasma concentrations (Cmax) and the time to peak plasma concentration (Tmax) were determined from the experimental values. The areas under the plasma concentration–time curve (AUC) of XR11576 were estimated using the experimental values (trapezoidal rule) with extrapolation to infinity (AUC0–∞) using the apparent terminal rate constant, defined as the slope of the final three to four data points of the log-linear concentration–time plot. The total body clearance (CL) was calculated as the ratio between the administered dose and the AUC0–∞. The extent of accumulation (R0) in plasma was calculated from AUC0–24 h (days 4 or 5)/AUC0–24 h (day 1). The fraction of the administered dose (Fe) excreted in urine and the cumulative amount of XR11576 excreted in urine (Ae) was determined. PK data analysis was carried out using a noncompartmental analysis approach with the aid of WinNonlin Version Pron4.0.1 (Pharsight, Cary NC 27511).
A nonlinear power model was used to assess dose proportionality separately for each day during cycles 1 and 2. Statistical analyses were performed using SAS version 8.1.

[5] = system: murine and human tumour cell lines; design: method as in Mistry et al, 2002; Lewis et al, 2003; conditions: murine leukaemias and human colon, breast, ovarian and lung carcinoma cell lines; ref Mistry et al, 2002; Lewis et al, 2003; cited from earlier work
[6] = human, 30 mg day^−1, first treatment course, mean, N=3
[7] = human, 60 mg day^−1, first treatment course, mean, N=4
[8] = human, 120 mg day^−1, first treatment course, mean, N=8
[9] = human, 150 mg day^−1, first treatment course, mean, N=3
[10] = human, 180 mg day^−1, first treatment course, mean, N=3

For `COc1cccc2c1ccc1nc3cccc(C(=O)N[C@H](C)CN(C)C)c3nc12` [XR11576, 4-methoxy-benzo[a]phenazine-11-carboxylic acid (2-dimethulamino-1-R-methyl-ethyl)-amide], the oral availability [1] is listed as 54±32%, the “activity against xenografts in vivo” value [2] is listed as “highly active” and the “administered dose excreted unchanged in urine” value [3] is listed as “Less than 0.5%”. The “R0 (ratio of accumulation)” value ([4]; 30 mg day^−1, first treatment course, mean, N=3) was 1.56, the “R0 (ratio of accumulation)” value ([4]; 60 mg day^−1, first treatment course, mean, N=4) was 1.87 and the “R0 (ratio of accumulation)” value ([4]; 120 mg day^−1, first treatment course, mean, N=8) was 1.93. For the same compound, the “R0 (ratio of accumulation)” value ([4]; 150 mg day^−1, first treatment course, mean, N=3) was 1.53, the “R0 (ratio of accumulation)” value ([4]; 180 mg day^−1, first treatment course, mean, N=3) was 1.34 and the “increase of systemic exposure with dose” value ([4]; 30–180 mg day^−1) was “greater than dose-proportional”. For the same compound, the “time of maximum peak drug levels post dose” value ([4]; all patients) was 3.69 ± 0.79 h, the “accumulation in plasma: exposure higher by the last day of dosing” value ([4]; days 1–5 dosing) was “approximately two-fold” and the “interpatient coefficients of variation in AUC values” ([4]; human, in vivo) was > 100%. For the same compound, the “relationship between apparent CL/F and BSA” value ([4]; human, in vivo) was “no relationship”, the AUC(0-inf) [4, 6] was 50 ng·h/mL and the AUC(0-t) [4, 6] was 36.2 ng·h/mL. The Cmax [4, 6] was 8.07 ng/mL, the Tmax [4, 6] was 2.5 h and the half-life ([4]; human, 30 mg day^−1, first treatment course, mean, N=3, read-out: T1/2 (converted)) was 5.53 h. For the same compound, the AUC(0-inf) [4, 7] was 517 ng·h/mL, the AUC(0-t) [4, 7] was 178 ng·h/mL and the Cmax [4, 7] was 21.7 ng/mL. The Tmax [4, 7] was 3.5 h, the half-life ([4]; human, 60 mg day^−1, first treatment course, mean, N=4, read-out: T1/2 (converted)) was 68.8 h and the AUC(0-inf) [4, 8] was 535 ng·h/mL. For the same compound, the AUC(0-t) [4, 8] was 329 ng·h/mL, the Cmax [4, 8] was 41.1 ng/mL and the Tmax [4, 8] was 3.75 h. For the same compound, the half-life ([4]; human, 120 mg day^−1, first treatment course, mean, N=8, read-out: T1/2 (converted)) was 31.2 h, the AUC(0-inf) [4, 9] was 2240 ng·h/mL and the AUC(0-t) [4, 9] was 1710 ng·h/mL. For the same compound, the Cmax [4, 9] was 167 ng/mL, the Tmax [4, 9] was 4 h and the AUC(0-inf) [4, 10] was 1810 ng·h/mL. For the same compound, the AUC(0-t) [4, 10] was 970 ng·h/mL, the Cmax [4, 10] was 112 ng/mL and the Tmax [4, 10] was 4.67 h. The half-life ([4]; human, all dose levels, read-out: mean terminal half-life) was ≤ 70 h and the “antitumour activity in vitro” value [5] was “exerted antitumour activity”.
